# pKi: −log10 of the molar value.
# Molecular target: T1, hCRTH2 (Homo sapiens, UniProt Q9Y5Y4)
# T1 construct: expressed in transfected cells; host or cells: HEK cell line expressing hCRTH2 (HEK-hCRTH2); membranes
# T1 sequence (Q9Y5Y4 1-395): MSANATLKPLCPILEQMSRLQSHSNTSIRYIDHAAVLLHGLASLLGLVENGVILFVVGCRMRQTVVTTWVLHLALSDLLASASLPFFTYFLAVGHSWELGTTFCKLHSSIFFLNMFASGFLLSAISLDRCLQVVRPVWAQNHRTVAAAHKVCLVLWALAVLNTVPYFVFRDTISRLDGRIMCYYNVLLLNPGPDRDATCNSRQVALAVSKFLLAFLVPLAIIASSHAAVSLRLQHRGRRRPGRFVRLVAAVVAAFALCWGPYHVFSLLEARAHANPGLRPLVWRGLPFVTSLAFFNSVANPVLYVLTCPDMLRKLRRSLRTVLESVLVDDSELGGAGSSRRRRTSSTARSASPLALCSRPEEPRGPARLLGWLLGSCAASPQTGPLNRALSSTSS
# Assay: Radioligand binding assay ([3H]PGD2 competition, membranes from HEK-hCRTH2 cell line)
# Conditions: 0.7 nM [3H]PGD2, membrane protein from HEK-hCRTH2 cell line, 60 min at room temperature; values given as ranges
# Description: Radioligand Binding Assay.
# Radioligand binding assays were performed at room temperature in 10 mM HEPES/KOH pH 7.4, 1 mM EDTA containing 10 mM MnCl2 and 0.7 nM [^3H]PGD2 (NEN, 171 Ci mmol^−1), in a final volume of 0.2 ml. Competing ligands were diluted in dimethylsulfoxide (Me2SO) that was kept constant at 1% (v/v) of the final incubation volume. The reaction was initiated by the addition of 8-20 μg of membrane protein prepared from a HEK-hCRTH2 cell line. Total and non-specific binding were determined in the absence and the presence of 10 μM PGD2, respectively. Under these conditions, specific binding (total minus non-specific) of the radioligand to the receptor reached equilibrium within 50 min and was stable up to 180 min. The reaction was routinely conducted for 60 min at room temperature and terminated by rapid filtration through prewetted Unifilters GF/C (Packard), using a Tomtec MachIII semi-automated harvester (for HEK-hCRTH2). The filters were then washed with 4 ml of the same buffer and residual radioligand bound to the filter was determined by liquid scintillation counting following equilibration in 25 μl Ultima Gold F™ (Unifilter) (Packard). The Ki (in nM) values for representative compounds of the present invention are as follows: ≦5: Examples 3.1, 5.1, 6.1, 7.1, 8.1/8A, 9.1, 26, 27.1, 28.1, 29.1, 30, 31.1, 31.3, 32.1, 32.4, 33.1, 34.1, 36.1, 38.1, 39, 40, 41; >5 and ≦10: Examples, 4, 5.3, 29.2; >10 and ≦50: Examples 1, 10, 14, 21, 22, 25, 31.4, 32.3, 35, 36.2, 37; >50 and ≦100: Examples 2, 5.4, 6.2, 27.2, 28.2; >100: Examples 3.2, 5.2, 7.2, 8.2, 9.2, 11, 12, 13, 15, 16, 17, 18, 19, 20, 23, 24, 31.2, 32.2, 33.2, 34.2, 38.2.
row,SMILES,pKi
1,"O=C(O)Cc1c2n(c3ccccc13)CC(n1nncc1C(O)c1ccc(Br)cc1)CC2 (stereo not drawn) [Example 22, (7-{5-[(4-Bromo-phenyl)-hydroxy-methyl]-[1,2,3]triazol-1-yl}-6,7,8,9-tetrahydropyrido[1,2-α]indol-10-yl)-acetic acid]",7.30 to 8.00
2,"O=C(O)Cc1c2n(c3ccccc13)CC(n1nncc1Cc1ccccc1)CC2 (single isomer, unassigned) [Example 3.2, [7-(5-Benzyl-[1,2,3]triazol-1-yl)-6,7,8,9-tetrahydropyrido[1,2-α]indol-10-yl]-acetic acid]",< 7.00
3,"O=C(O)Cc1c2n(c3ccccc13)CC(n1nncc1C1(O)c3ccccc3-c3ccccc31)CC2 (stereo not drawn) [Example 25, {7-[5-(9-Hydroxy-9H-fluoren-9-yl)-[1,2,3]triazol-1-yl]-6,7,8,9-tetrahydropyrido[1,2-α]indol-10-yl}-acetic acid]",7.30 to 8.00
4,"O=C(O)Cc1c2n(c3c(F)cccc13)CC(n1nncc1Cc1ccc(F)cc1F)CC2 (single isomer, unassigned) [Example 41, {7-[5-(2,4-difluorobenzyl)-1H-1,2,3-triazol-1-yl]-4-fluoro-6,7,8,9-tetrahydro-pyrido[1,2-a]indol-10-yl}acetic acid]",≥ 8.30
5,"O=C(O)Cc1c2n(c3ccccc13)CC(n1nncc1C(O)(c1ccccc1)C(F)(F)F)CC2 (stereo not shown) [Example 35, {7-[5-(2,2,2-trifluoro-1-hydroxy-1-phenyl-ethyl)-1H-1,2,3-triazol-1-yl]-6,7,8,9-tetrahydropyrido[1,2-a]indol-10-yl}acetic acid]",7.30 to 8.00
6,"CC(O)(c1ccc(F)cc1)c1cnnn1C1CCc2c(CC(=O)O)c3ccccc3n2C1 (single isomer, unassigned) [Example 5.2, (7-{5-[1-(4-Fluoro-phenyl)-1-hydroxy-ethyl]-[1,2,3]triazol-1-yl}-6,7,8,9-tetrahydropyrido[1,2-α]indol-10-yl)-acetic acid]",< 7.00
7,"O=C(O)Cc1c2n(c3ccccc13)CC(n1cc(Cc3ccccc3)nn1)CC2 (stereo not drawn) [Example 1, [7-(4-Benzyl-[1,2,3]triazol-1-yl)-6,7,8,9-tetrahydropyrido[1,2-α]indol-10-yl]-acetic acid]",7.30 to 8.00
8,"O=C(O)Cc1c2n(c3ccccc13)CC(n1cc(-c3ccc(F)cc3)nn1)CC2 (stereo not drawn) [Example 10, {7-[4-(4-Fluoro-phenyl)-[1,2,3]triazol-1-yl]-6,7,8,9-tetrahydropyrido[1,2-α]indol-10-yl}-acetic acid]",7.30 to 8.00
9,"O=C(O)Cc1c2n(c3ccccc13)CC(n1nncc1-c1ccc(F)cc1)CC2 (stereo not drawn) [Example 20, {7-[5-(4-Fluoro-phenyl)-[1,2,3]triazol-1-yl]-6,7,8,9-tetrahydropyrido[1,2-α]indol-10-yl}-acetic acid]",< 7.00
10,"CC(C)(C)OC(=O)N1CCC(c2cnnn2C2CCc3c(CC(=O)O)c4ccccc4n3C2)CC1 (stereo not drawn) [Example 23, 4-[3-(10-Carboxymethyl-6,7,8,9-tetrahydropyrido[1,2-α]indol-7-yl)-3H-[1,2,3]triazol-4-yl]-piperidine-1-carboxylic acid tert-butyl ester]",< 7.00
11,"CC(C)C(O)c1cn(C2CCc3c(CC(=O)O)c4ccccc4n3C2)nn1 (stereo not drawn) [Example 12, {7-[4-(1-Hydroxy-2-methyl-propyl)-[1,2,3]triazol-1-yl]-6,7,8,9-tetrahydropyrido[1,2-α]indol-10-yl}-acetic acid]",< 7.00
12,"C=C(c1ccc(F)cc1)c1cnnn1C1CCc2c(CC(=O)O)c3ccccc3n2C1 (stereo not drawn) [Example 26, (7-{5-[1-(4-Fluoro-phenyl)-vinyl]-[1,2,3]triazol-1-yl}-6,7,8,9-tetrahydropyrido[1,2-α]indol-10-yl)-acetic acid]",≥ 8.30
13,"CC(C)(c1ccc(F)cc1)c1cnnn1C1CCc2c(CC(=O)O)c3cccc(F)c3n2C1 (single isomer, unassigned) [Example 39, (4-Fluoro-7-{5-[1-(4-fluorophenyl)-1-methylethyl]-1H-1,2,3-triazol-1-yl}-6,7,8,9-tetrahydropyrido[1,2-a]indol-10-yl)acetic acid]",≥ 8.30

# Results, then the molecule that gave them:
row,pKi,SMILES
1,≥ 8.30,"O=C(O)Cc1c2n(c3c(F)cccc13)CC(n1nncc1Cc1ccccc1)CC2 (single isomer, unassigned) [Example 7.1, [7-(5-Benzyl-[1,2,3]triazol-1-yl)-4-fluoro-6,7,8,9-tetrahydropyrido[1,2-α]indol-10-yl]-acetic acid]"
2,≥ 8.30,"O=C(O)Cc1c2n(c3ccccc13)CC(n1nncc1Cc1ccc(F)cc1)CC2 (single isomer, unassigned) [Example 28.1]"
3,≥ 8.30,"Cc1nnn(C2CCc3c(CC(=O)O)c4cccc(F)c4n3C2)c1Cc1ccc(F)cc1 (single isomer, unassigned) [Example 36.1, {4-Fluoro-7-[5-(4-fluorobenzyl)-4-methyl-1H-1,2,3-triazol-1-yl]-6,7,8,9-tetrahydropyrido[1,2-a]indol-10-yl}acetic acid]"
4,7.30 to 8.00,"CC(O)(c1ccc(F)cc1)c1cnnn1C1CCc2c(CC(=O)O)c3cccc(F)c3n2C1 (single isomer, unassigned) [Example 31.4]"
5,< 7.00,"CC(O)(c1ccc(F)cc1)c1cnnn1C1CCc2c(CC(=O)O)c3cccc(F)c3n2C1 (single isomer, unassigned) [Example 31.2]"
6,≥ 8.30,"O=C(O)Cc1c2n(c3ccccc13)CC(n1nncc1C(O)(c1ccc(F)cc1)c1ccc(F)cc1)CC2 (single isomer, unassigned) [Example 27.1]"
7,≥ 8.30,"O=C(O)Cc1c2n(c3ccccc13)CC(n1nncc1C1(c3ccccc3)CCCC1)CC2 (single isomer, unassigned) [Example 6.1, {7-[5-(1-Phenyl-cyclopentyl)-[1,2,3]triazol-1-yl]-6,7,8,9-tetrahydropyrido[1,2-α]indol-10-yl}-acetic acid]"
8,≥ 8.30,"O=C(O)Cn1c2c(c3ccccc31)CC(n1nncc1Cc1ccccc1)CC2 (single isomer, unassigned) [Example 9.1, [3-(5-Benzyl-[1,2,3]triazol-1-yl)-1,2,3,4-tetrahydro-carbazol-9-yl]-acetic acid]"
9,< 7.00,"O=C(O)Cn1c2c(c3ccccc31)CC(n1nncc1Cc1ccccc1)CC2 (single isomer, unassigned) [Example 9.2, [3-(5-Benzyl-[1,2,3]triazol-1-yl)-1,2,3,4-tetrahydro-carbazol-9-yl]-acetic acid]"
10,< 7.00,"O=C(O)Cc1c2n(c3c(F)cccc13)CC(n1nncc1Cc1ccccc1)CC2 (single isomer, unassigned) [Example 7.2, [7-(5-Benzyl-[1,2,3]triazol-1-yl)-4-fluoro-6,7,8,9-tetrahydropyrido[1,2-α]indol-10-yl]-acetic acid]"
11,≥ 8.30,"O=C(O)Cc1c2n(c3c(F)cccc13)C[C@H](n1nncc1Cc1ccc(F)cc1)CC2 [Example 8.1, {(7R)-4-Fluoro-7-[5-(4-fluorobenzyl)-1H-[1,2,3]triazol-1-yl]-6,7,8,9-tetrahydropyrido[1,2-a]-indol-10-yl}-acetic acid]"
12,< 7.00,"CC(c1ccccc1)c1cnnn1C1CCc2c(CC(=O)O)c3cccc(F)c3n2C1 (single isomer, unassigned) [Example 32.2, {4-Fluoro-7-[5-(1-phenyl-ethyl)-[1,2,3]triazol-1-yl]-6,7,8,9-tetrahydropyrido[1,2-α]indol-10-yl}-acetic acid]"

# Source: US9023864B2, “Indole derivatives as CRTH2 receptor antagonists” (Merck Sharp & Dohme Corp., priority 2009, dated 2015)
